According to ChEMBL document CHEMBL1141412, “Search for cell motility and angiogenesis inhibitors with potential anticancer activity: beauvericin and other constituents of two endophytic strains of Fusarium oxysporum” (J Nat Prod, 2007):
Active and inactive are the calls of the source. The calls are words filed in the database; no cut-off is given here.

Tests used:
[1] = test system: NCI-H460; assay: Cytotoxicity against human NCI-H460 cells after 72 hrs by MTT assay; assay type: cell-based; conditions: NCI-H460, 72 h
[2] = test system: MIA PaCa-2; assay: Cytotoxicity against human MIAPaCa2 cells after 72 hrs by MTT assay; assay type: cell-based; conditions: MIA PaCa-2, 72 h
[3] = test system: MCF7; assay: Cytotoxicity against human MCF7 cells after 72 hrs by MTT assay; assay type: cell-based; conditions: MCF7, 72 h
[4] = test system: SF-268; assay: Cytotoxicity against human SF268 cells after 72 hrs by MTT assay; assay type: functional, cell-based; conditions: SF-268, 72 h
[5] = Inhibition of cell proliferation in PC3M cells after 20 hrs by MTT assay; assay type: functional, cell-based; conditions: Homo sapiens, PC-3M
[6] = test system: MDA-MB-231; assay: Inhibition of cell proliferation in MDA-MB-231 cells after 40 hrs by MTT assay; assay type: functional, cell-based; conditions: Homo sapiens, MDA-MB-231, 40 h
[7] = test system: HUVEC; assay: Antiangiogenic activity in HUVEC-2 cells assessed as inhibition of endothelial cell network formation after 16 hrs at 3 uM; assay type: functional, cell-based; conditions: Homo sapiens
[8] = Antiangiogenic activity in HUVEC-2 cells assessed as inhibition of endothelial cell network formation after 16 hrs; assay type: functional, cell-based; conditions: Homo sapiens
[9] = test system: NCI-H460; assay: Cytotoxicity against human NCI-H460 cells at 4 ug/mL after 72 hrs by MTT assay; assay type: cell-based; conditions: nci-h460, 72 h
[10] = test system: MIA PaCa-2; assay: Cytotoxicity against human MIAPaCa2 cells at 4 ug/mL after 72 hrs by MTT assay; assay type: cell-based; conditions: mia paca-2, 72 h
[11] = test system: MCF7; assay: Cytotoxicity against human MCF7 cells at 4 ug/mL after 72 hrs by MTT assay; assay type: cell-based; conditions: mcf7, 72 h
[12] = test system: SF-268; assay: Cytotoxicity against human SF268 cells at 4 ug/mL after 72 hrs by MTT assay; assay type: functional, cell-based
[13] = test system: NCI-H460; assay: Cytotoxicity against human NCI-H460 cells at 2 ug/mL after 72 hrs by MTT assay; assay type: cell-based; conditions: nci-h460, 72 h
[14] = test system: MIA PaCa-2; assay: Cytotoxicity against human MIAPaCa2 cells at 2 ug/mL after 72 hrs by MTT assay; assay type: cell-based; conditions: mia paca-2, 72 h
[15] = test system: MCF7; assay: Cytotoxicity against human MCF7 cells at 2 ug/mL after 72 hrs by MTT assay; assay type: cell-based; conditions: mcf7, 72 h
[16] = test system: SF-268; assay: Cytotoxicity against human SF268 cells at 2 ug/mL after 72 hrs by MTT assay; assay type: functional, cell-based

CC(C)[C@@H]1OC(=O)[C@@H](Cc2ccccc2)N(C)C(=O)[C@H](C(C)C)OC(=O)[C@@H](Cc2ccccc2)N(C)C(=O)[C@H](C(C)C)OC(=O)[C@@H](Cc2ccccc2)N(C)C1=O [BEAUVERICIN]
IC50 [1]: 1410 nM
IC50 [2]: 1660 nM
IC50 [3]: 1810 nM
IC50 [4]: 2290 nM
IC25 [5]: 2300 nM
IC50 [5]: 3800 nM
IC25 [6]: 6400 nM
IC50 [6]: 7500 nM
Activity [7]: Active
IC25 [8]: 5000 nM
IC50 [8]: 7500 nM

COC1=CC(=O)c2c(c(O)c3oc4cc(OC)cc(C)c4c(=O)c3c2O)C1=O [BIKAVERIN]
IC50 [1]: 430 nM
IC50 [2]: 260 nM
IC50 [3]: 420 nM
IC50 [4]: 380 nM

COC1=CC(=O)c2c(cc3oc4cc(OC)cc(C)c4c(=O)c3c2O)C1=O
Activity [9]: Not Active
Activity [10]: Not Active
Activity [11]: Not Active
Activity [12]: inactive
Activity [13]: Not Active
Activity [14]: Not Active
Activity [15]: Not Active
Activity [16]: inactive

COc1cccc2c1C(=O)c1c(O)c3c(c(O)c1C2=O)C[C@@](O)(C(=O)CO)C[C@@H]3O[C@H]1C[C@H](N)[C@H](O)[C@H](C)O1 [DOXORUBICIN]
IC50 [1]: 10 nM
IC50 [2]: 50 nM
IC50 [4]: 40 nM
